pIC50: −log10 of the molar value. Active and inactive are the calls of the source. The rule behind the calls is not given here.

From ChEMBL document CHEMBL2029223, “Identification of a phenylacylsulfonamide series of dual Bcl-2/Bcl-xL antagonists” (Bioorg Med Chem Lett, 2012) come the findings set out here.

Assay [1] is described as follows: Antiproliferative activity against human SU-DHL4 cells after 72 hrs by Cell-Titer Glo assay in presence of 10% FBS. It is filed as functional, cell-based, SUD4. Particulars: SU-DHL-4, 72 h.
Assay [2] concerns SUD4. The experiment in a line: Induction of apoptosis in human SU-DHL4 cells assessed as cytochrome c release at 0.1 to 10 uM after 24 hrs by Western blot analysis. It is filed as functional, cell-based.
Assay [3] deals with MV4-11. The assay is described as follows: Antiproliferative activity against human MV411 cells after 72 hrs by Cell-Titer Glo assay in presence of 10% FBS. Particulars: MV4-11, 72 h. It is filed as functional, cell-based.
Assay [4] relates to MV4-11. The experiment in a line: Antiproliferative activity against human MV411 cells after 72 hrs by Cell-Titer Glo assay in presence of 2% FBS. It is filed as functional, cell-based. As to conditions: MV4-11, 72 h.
In assay [5] the test system is SUD4. The experiment in a line: Induction of apoptosis in human SU-DHL4 cells assessed as BAK oligomerization at 0.1 to 10 uM after 24 hrs by Western blot analysis. It is filed as functional, cell-based.
Assay [6] in a line: Antiproliferative activity against human SU-DHL4 cells after 72 hrs by Cell-Titer Glo assay in presence of 2% FBS. Particulars: SU-DHL-4, 72 h. It is filed as functional, cell-based, SUD4.
Assay [7] addresses Apoptosis regulator Bcl-2 (Homo sapiens, UniProt P10415). The experiment in a line: Inhibition in GST-tagged Bcl2 using [FAM]-IWIAQELRRIGDEFNAYY-NH2 as substrate after 60 mins by fluorescence polarization assay.
The target in a further assay is Bcl-2-like protein 1 (Homo sapiens, UniProt Q07817). The assay is described as follows: Inhibition of Bcl-XL using fluoresceinated 18-mer Bim as substrate after 60 mins by FRET analysis.
Bcl-2-like protein 1, sequence (Q07817 whole entry): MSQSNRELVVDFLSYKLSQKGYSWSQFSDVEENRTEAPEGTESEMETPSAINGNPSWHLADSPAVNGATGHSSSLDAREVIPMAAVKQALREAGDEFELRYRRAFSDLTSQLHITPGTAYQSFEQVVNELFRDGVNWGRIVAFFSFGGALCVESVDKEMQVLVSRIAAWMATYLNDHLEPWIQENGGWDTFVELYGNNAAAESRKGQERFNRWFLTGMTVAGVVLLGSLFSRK
In assay [8] the test system is SUD4. The experiment in a line: Induction of apoptosis in human SU-DHL4 cells assessed as cytochrome c release at 10 uM after 24 hrs by Western blot analysis. It is filed as functional, cell-based.
Assay [9] relates to SUD4. The experiment in a line: Induction of apoptosis in human SU-DHL4 cells assessed as BAK oligomerization at 10 uM after 24 hrs by Western blot analysis. It is filed as functional, cell-based.

Apoptosis regulator Bcl-2, sequence (P10415 whole entry): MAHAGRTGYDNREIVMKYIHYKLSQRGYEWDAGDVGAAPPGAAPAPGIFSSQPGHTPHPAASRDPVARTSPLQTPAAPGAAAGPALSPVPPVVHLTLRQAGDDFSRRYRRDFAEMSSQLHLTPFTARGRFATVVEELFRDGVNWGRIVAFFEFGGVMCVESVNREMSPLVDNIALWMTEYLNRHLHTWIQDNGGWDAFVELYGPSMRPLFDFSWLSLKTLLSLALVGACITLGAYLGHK

Regarding `CCCCN(CCCC)C(=O)c1nn(-c2ccc(C(=O)NS(=O)(=O)c3ccc4ccccc4c3)cc2C(=O)N2Cc3ccccc3C[C@H]2CO)c(C)c1Cl`, the pIC50 in assay [1] is < 5.00; in the assay on MV4-11 [3], < 5.00; in the assay on MV4-11 [4], < 5.00; in assay [6], < 5.00; in assay [7], 7.46. Besides, the outcome with SUD4 [2] and in the assay on SUD4 [5] was Active.

On to `CCCCN(CCCC)C(=O)c1nn(-c2ccc(C(=O)NS(=O)(=O)c3ccc4ccccc4c3)cc2C(=O)N2Cc3ccccc3C[C@H]2CN2CCCC2)c(C)c1Cl`, for which the pIC50 was < 5.00 in assay [1]; < 5.00 in the assay on MV4-11 [3]; 5.82 in the assay on MV4-11 [4]; 5.74 in assay [6]; 7.72 on Bcl-2-like protein 1; 7.33 in assay [7].

Consider `CCCCN(CCCC)C(=O)c1nn(-c2ccc(C(=O)NS(=O)(=O)c3ccc4c(c3)CCN4)cc2C(=O)N2CCc3ccccc3C2)c(C)c1Cl`, for which the pIC50 against Bcl-2-like protein 1 is 7.64; in [7], 7.49.

For the compound `CCCCN(CCCC)C(=O)c1nn(-c2ccc(C(=O)NS(=O)(=O)c3ccc4ccccc4c3)cc2C(=O)N2CCc3ccccc3C2)c(C)c1Cl`, the pIC50 against Bcl-2-like protein 1 is 7.62; in assay [7], 7.49.

Compound `CCCCN(CCCC)C(=O)c1nn(-c2ccc(C(=O)NS(=O)(=O)c3ccc4ccc(I)cc4c3)cc2C(=O)N2CCc3ccccc3C2)c(C)c1Cl` showed a pIC50 at Bcl-2-like protein 1 of 7.33.

On to `CCCCN(CCCC)C(=O)c1nn(-c2ccc(C(=O)NS(=O)(=O)c3ccc4c(c3)CCN4C(=O)c3ccc(Cl)c(Cl)c3)cc2C(=O)N2CCc3ccccc3C2)c(C)c1Cl`, for which the negative-log IC50 (pIC50) on Bcl-2-like protein 1 was 6.26; in assay [7] it was 6.55.

As for `CCCCN(CCCC)C(=O)c1nn(-c2ccc(C(=O)NS(=O)(=O)c3ccc4ccccc4c3)cc2C(=O)N2COc3ccccc3C2)c(C)c1Cl`, on Bcl-2-like protein 1, the pIC50 was 7.21.

On to `CCCCN(CCCC)C(=O)c1nn(-c2ccc(NS(=O)(=O)c3cc(Cl)cc(Cl)c3O)cc2C(=O)N2CCc3ccccc3C2)c(C)c1Cl`, for which the pIC50 is 5.37 on Bcl-2-like protein 1 and 6.04 in assay [7].

With `CCCCN(CCCC)C(=O)c1nn(-c2ccc(C(=O)NS(=O)(=O)c3ccc4ccccc4c3)cc2C(=O)N2CNc3ccccc3C2)c(C)c1Cl`, the pIC50 (against Bcl-2-like protein 1; in assay [7]) was 7.59 each time.

In the case of `CCCCN(CCCC)C(=O)c1nn(-c2ccc(C(=O)NS(=O)(=O)c3ccc4ccc(OCCN5CCOCC5)cc4c3)cc2C(=O)N2CCc3ccccc3C2)c(C)c1Cl`, the values for the pIC50 (on Bcl-2-like protein 1; in [7]) were 7.27 and 6.40, respectively.

On to `CCCCN(CCCC)C(=O)c1nn(-c2ccc(C(=O)NS(=O)(=O)c3ccc4ccccc4c3)cc2C(=O)N2Cc3ccccc3C[C@H]2CN2CCOCC2)c(C)c1Cl`, for which the pIC50 in assay [1] was < 5.00; with MV4-11 [3], < 5.00; with MV4-11 [4], 5.52; in [6], 5.20; on Bcl-2-like protein 1 it was 7.80; in [7] it was 7.85.

For `CCCCN(CCCC)C(=O)c1nn(-c2ccc(C(=O)NS(=O)(=O)c3ccc4ccccc4c3)cc2C(=O)N2Cc3ccccc3C[C@H]2CN)c(C)c1Cl`, the pIC50 in assay [1] is < 5.00; with MV4-11 [3], < 5.00; with MV4-11 [4] it was 5.07; in [6], < 5.00; in assay [7], 8.05. The result in the assay with SUD4 [2] and in the assay on SUD4 [5] was Active.

With `CCCCN(CCCC)C(=O)c1nn(-c2ccc(C(=O)NS(=O)(=O)c3ccc4ccccc4c3)cc2C(=O)N2Cc3ccccc3C[C@H]2COCCN(C)C)c(C)c1Cl`, the negative-log IC50 (pIC50) on Bcl-2-like protein 1 was 7.33; in assay [7], 7.43.

Take `CCCCN(CCCC)C(=O)c1nn(-c2ccc(C(=O)NS(=O)(=O)c3ccc4ccccc4c3)cc2C(=O)N2CCc3ccccc3C2C)c(C)c1Cl` (stereo not given): the pIC50 was 6.23 at Bcl-2-like protein 1 and 6.15 in assay [7].

Consider `CCCCN(CCCC)C(=O)c1nn(-c2ccc(C(=O)NS(=O)(=O)c3ccc4ccccc4c3)cc2C(=O)N2Cc3ccccc3C[C@H]2CN2CCN(C)CC2)c(C)c1Cl`, for which the pIC50 in [1] was < 5.00; in the assay with MV4-11 [3], < 5.00; in the assay with MV4-11 [4], 5.32; in assay [6], 5.01; against Bcl-2-like protein 1, 7.66; in assay [7], 6.85.

For the compound `O=C(c1ccc(CN(Cc2ccc(F)cc2)S(=O)(=O)c2cc(Cl)cc(Cl)c2O)cc1)N(Cc1ccc(F)cc1)Cc1cc(Cl)cc(Cl)c1`, the pIC50 is < 4.52 against Bcl-2-like protein 1 and 7.46 in assay [7].

As for `CC1(C)CCC(c2ccc(Cl)cc2)=C(CN2CCN(c3ccc(C(=O)NS(=O)(=O)c4ccc(N[C@H](CCN5CCOCC5)CSc5ccccc5)c(S(=O)(=O)C(F)(F)F)c4)cc3)CC2)C1`, the result in the assay with SUD4 [2] and in the assay on SUD4 [5] was Active.

With `CCCCN(CCCC)C(=O)c1nn(-c2ccc(C(=O)NS(=O)(=O)c3ccc4c(c3)CCN4Cc3ccc(Cl)c(Cl)c3)cc2C(=O)N2CCc3ccccc3C2)c(C)c1Cl`, the pIC50 is < 5.00 in assay [1]; < 5.00 in the assay with MV4-11 [3]; < 5.00 in the assay on MV4-11 [4]; < 5.00 in [6]; 7.36 at Bcl-2-like protein 1; 7.80 in assay [7]. Also, the result in the assay on SUD4 [8] and in the assay with SUD4 [9] was Active.

Take `CCCCN(CCCC)C(=O)c1nn(-c2ccc(C(=O)NS(=O)(=O)c3ccc4ccccc4c3)cc2C(=O)N2Cc3ccccc3C[C@H]2COCCCOC)c(C)c1Cl`: the pIC50 is < 5.00 in [1]; < 5.00 in the assay on MV4-11 [3]; 5.55 with MV4-11 [4]; 5.27 in [6]; 7.54 at Bcl-2-like protein 1; 7.66 in [7].

`CCCCN(CCCC)C(=O)c1nn(-c2ccc(C(=O)NS(=O)(=O)c3ccc4cccc(S(=O)(=O)CC)c4c3)cc2C(=O)N2CCc3ccccc3C2)c(C)c1Cl`: the pIC50 is 6.82 against Bcl-2-like protein 1 and 6.74 in assay [7].

For `CCCCN(CCCC)C(=O)c1nn(-c2ccc(C(=O)NS(=O)(=O)c3ccc4cccc(OCc5ccc(C(=O)O)cc5)c4c3)cc2C(=O)N2CCc3ccccc3C2)c(C)c1Cl`, the pIC50 was 7.77 against Bcl-2-like protein 1 and 7.82 in [7].

Turning to `CCCCN(CCCC)C(=O)c1nn(-c2ccc(C(=O)NS(=O)(=O)c3ccc4c(c3)CCN4CC)cc2C(=O)N2CCc3ccccc3C2)c(C)c1Cl`, the figures for the pIC50 (at Bcl-2-like protein 1; in assay [7]) were 7.77 and 7.11, respectively.

`CCCCN(CCCC)C(=O)c1nn(-c2ccc(C(=O)NS(=O)(=O)c3ccc4cccc(OCCN5CCOCC5)c4c3)cc2C(=O)N2CCc3ccccc3C2)c(C)c1Cl` showed a pIC50 against Bcl-2-like protein 1 of 7.39.
